From patent publication US20110281957A1, “ENHANCED BIOACTIVE FORMULATIONS OF RESVERATROL” (Lipoprotein Technologies, Inc., priority 2008, published 2011)
Read-outs that look alike come from different tables or passages of the source.

Key:
[1] = Solubility in pH 7.4 Hank's Balanced Salt Solution, LC/MS/MS; type: physicochemical; conditions: pH 7.4 buffer, shaken 2 hours, stood overnight at room temperature
Description: The mixtures were shaken for 2 hours using a benchtop vortexer and left to stand overnight at room temperature. […] After vortexing and standing overnight, the resveratrol gel formulation mixture was centrifuged at 14,000 rpm for 10 minutes. The filtrate or supernatant was sampled twice, consecutively, and diluted 10, 100, and 10.000-fold in a mixture of 50:50 assay buffer:acetonitrile prior to analysis. Both mixtures were assayed by LC/MS/MS using electrospray ionization against the standards prepared in a mixture of 50:50 assay buffer:acetonitrile. Standard concentrations ranged from 1.0 μM down to 3.0 nM.

[2] = Visual clarity of the resveratrol/surfactant mixture on addition to water; type: physicochemical; conditions: polyoxyl 40 castor oil (macrogoglycerol hydroxystearate) as the surfactant
Description: Water soluble compositions of trans-resveratrol were formulated containing the non-ionic surfactant macrogolglycerol hydroxystearate (polyoxyl 40 castor oil). By heating and stirring this polyoxyl castor oil with a powdered synthetic 99% trans-resveratrol, a clear viscous solution was formed containing dissolved trans-resveratrol (hereinafter referred to as “resveratrol gel formulation”). The resveratrol gel formulation consisted of macrogolglycerol hydroxystearate 40 (50 ml) and powdered trans-resveratrol (3 grams), representing a concentration of 6% for the resveratrol in the surfactant.
The following formulation was prepared as described below: 500 mg of purified resveratrol 99% derived from polygonum cuspidatum (Japanese knotweed) was dissolved in 25 ml of warm macrogoglycerol hydroxystearate until a clear gel was formed. 250 mg of ascorbic acid was added to the clear gel, which was then slowly added to 100 ml of warm water.

[3] = test system: breast cancer (MCF-7) cells; conditions: MCF-7 cells in vitro; cited from earlier work
[4] = test system: ovarian cancer (A-2780) cells; conditions: A-2780 cells in vitro; cited from earlier work
[5] = cited from earlier work
[6] = humans, up to 4 g; cited from earlier work

## Oc1ccc(/C=C/c2cc(O)cc(O)c2)cc1 [Powdered Resveratrol, trans-3,5,4′-trihydroxystilbene]
[1]; Hank's Balanced Salt Solution buffer, pH 7.4, aqueous buffer, thermodynamic from solid, average of 2 replicates, read-out: Solubility AVG
  solubility: 0.5 µM
[1]; Hank's Balanced Salt Solution buffer, pH 7.4, aqueous buffer, thermodynamic from solid, replicate 1, read-out: Solubility Rep 1
  solubility: 0.4 µM
[1]; Hank's Balanced Salt Solution buffer, pH 7.4, aqueous buffer, thermodynamic from solid, replicate 2, read-out: Solubility Rep 2
  solubility: 0.61 µM
[1]; average of 2 replicates, read-out: Solubility AVG
  solubility: 0.505 µM

## Oc1ccc(C=Cc2cc(O)cc(O)c2)cc1 [Resveratrol, 3,5,4′-trihydroxystilbene]
[2]
  Maximum concentration in surfactant for a crystal-clear solution in water: ≤ 20%
[3]
  Inhibition of proliferation: inhibited the proliferation
[4]
  Inhibition of proliferation: inhibited the proliferation
[5]
  Solubility in water: insoluble in water

## O=c1c(O)c(-c2ccc(O)c(O)c2)oc2cc(O)cc(O)c12 [quercetin]
[6]
  Detection in plasma after oral administration: No quercetin could be found in plasma
